Measurements reported in US20110014148A1, “Cationic Surfactants Having Improved Properties” (COGNIS IP MANAGEMENT GMBH, priority 2008, published 2011).

Experiments:
[1] = system: algae; type: cell-based
Protocol: (§1) For the cationic surfactant type 1 from Table 2, the biodegradability and toxicity was determined in accordance with OECD 301 B against algae.

[2] = Biodegradability in accordance with OECD 301 B
Protocol: as §1

Biodegradability [2]: not degraded
Structure (SMILES): CCCCCCCCCCCCCCCCCCCCCC[N+](C)(C)C.[Cl-] [behentrimonium chloride]
Toxicity towards algae [1]: < 1 mg/L
